Results as given in patent US20240228504A1, “SUBSTITUTED TRICYCLIC AMIDES, ANALOGUES THEREOF, AND METHODS USING SAME” (Arbutus Biopharma Corporation, priority 2020, published 2024).

Each compound was assayed on HBV rcDNA in HepDE19 cells (assay: HepDE19 assay with bDNA quantitation of HBV rcDNA). Details: Hepatitis B virus, HepDE19, HepDE19 assay, inhibition of rcDNA formation, bDNA quantitation; read-out: DE-19bDNA EC50.
Type: cell-based, hepatitis B virus

Going from `COc1c2cc(C(=O)N(C)[C@@H]3COCc4[nH]c(=O)c5cc(F)c(F)cc5c43)ccc2nn1C(F)F` [Compound 368, (S)-N-(8,9-Difluoro-6-oxo-1,4,5,6-tetrahydro-2H-pyrano[3,4-c]isoquinolin-1-yl)-2-(difluoromethyl)-3-methoxy-N-methyl-2H-indazole-5-carboxamide] to `Cc1nn(C(F)F)c2ccc(C(=O)N(C)[C@@H]3COCc4[nH]c(=O)c5cc(F)c(F)cc5c43)cc12` [Compound 417, (S)-N-(8,9-Difluoro-6-oxo-1,4,5,6-tetrahydro-2H-pyrano[3,4-c]isoquinolin-1-yl)-1-(difluoromethyl)-N,3-dimethyl-1H-indazole-5-carboxamide], the EC50 falls from 3400 nM to 20 nM (170-fold).

First: COc1n[nH]c2ccc(C(=O)N(C)[C@@H]3COCc4[nH]c(=O)c5cc(F)c(F)cc5c43)cc12 [Compound 369, (S)-N-(8,9-Difluoro-6-oxo-1,4,5,6-tetrahydro-2H-pyrano[3,4-c]isoquinolin-1-yl)-3-methoxy-N-methyl-1H-indazole-5-carboxamide]
Second: CN(C(=O)c1ccc2[nH]ncc2c1)[C@@H]1COCc2[nH]c(=O)c3cc(F)c(F)cc3c21 [Compound 429, (S)-N-(8,9-Difluoro-6-oxo-1,4,5,6-tetrahydro-2H-pyrano[3,4-c]isoquinolin-1-yl)-N-methyl-1H-indazole-5-carboxamide]
The EC50 of the first is 6.2-fold higher: 6100 nM for the first, 980 nM for the second.

`CN(C(=O)C1CN(c2csc(Cl)c2)C1)[C@@H]1COCc2[nH]c(=O)c3cc(F)c(F)cc3c21` [Compound 370, (S)-1-(5-Chlorothiophen-3-yl)-N-(8,9-difluoro-6-oxo-1,4,5,6-tetrahydro-2H-pyrano[3,4-c]isoquinolin-1-yl)-N-methylazetidine-3-carboxamide] and `CN(C(=O)c1ccc2ncsc2c1)[C@@H]1COCc2[nH]c(=O)c3cc(F)c(F)cc3c21` [Compound 428, (S)-N-(8,9-Difluoro-6-oxo-1,4,5,6-tetrahydro-2H-pyrano[3,4-c]isoquinolin-1-yl)-N-methylbenzo[d]thiazole-6-carboxamide] are within 1.5-fold of each other in EC50: 490 nM for the first, 340 nM for the second.

Compared with `CN(C(=O)c1cc2ccnc(Cl)c2[nH]1)[C@@H]1COCc2[nH]c(=O)c3cc(F)c(F)cc3c21` [Compound 371, (S)-7-Chloro-N-(8,9-difluoro-6-oxo-1,4,5,6-tetrahydro-2H-pyrano[3,4-c]isoquinolin-1-yl)-N-methyl-1H-pyrrolo[2,3-c]pyridine-2-carboxamide], `CN(C(=O)c1cc2c(Cl)nccc2[nH]1)[C@@H]1COCc2[nH]c(=O)c3cc(F)c(F)cc3c21` [Compound 372, (S)-4-Chloro-N-(8,9-difluoro-6-oxo-1,4,5,6-tetrahydro-2H-pyrano[3,4-c]isoquinolin-1-yl)-N-methyl-1H-pyrrolo[3,2-c]pyridine-2-carboxamide] is 7-fold lower in EC50: 140 nM for the first, 20 nM for the second. The second is the more potent here.

First: CN(C(=O)c1ccn2c(Cl)ccc2c1)[C@@H]1COCc2[nH]c(=O)c3cc(F)c(F)cc3c21 [Compound 373, (S)-3-Chloro-N-(8,9-difluoro-6-oxo-1,4,5,6-tetrahydro-2H-pyrano[3,4-c]isoquinolin-1-yl)-N-methylindolizine-7-carboxamide]
Second: CN(C(=O)c1cc2ccc(C(F)F)cn2c1)[C@@H]1COCc2[nH]c(=O)c3cc(F)c(F)cc3c21 [Compound 375, (S)-N-(8,9-Difluoro-6-oxo-1,4,5,6-tetrahydro-2H-pyrano[3,4-c]isoquinolin-1-yl)-6-(difluoromethyl)-N-methylindolizine-2-carboxamide]
The EC50 of the first is 33-fold lower: 10 nM for the first, 330 nM for the second. The first is the more potent here.

Going from `CN(C(=O)c1cc2cc(C(F)F)ccn2c1)[C@@H]1COCc2[nH]c(=O)c3cc(F)c(F)cc3c21` [Compound 374, (S)-N-(8,9-Difluoro-6-oxo-1,4,5,6-tetrahydro-2H-pyrano[3,4-c]isoquinolin-1-yl)-7-(difluoromethyl)-N-methylindolizine-2-carboxamide] to `CN(C(=O)c1cc2c(C(F)F)cccn2c1)[C@@H]1COCc2[nH]c(=O)c3cc(F)c(F)cc3c21` [Compound 407, (S)-N-(8,9-difluoro-6-oxo-1,4,5,6-tetrahydro-2H-pyrano[3,4-c]isoquinolin-1-yl)-8-(difluoromethyl)-N-methylindolizine-2-carboxamide], the EC50 falls from 24000 nM to 10 nM (2400-fold).

`CN(C(=O)c1cc2cc(F)c(F)cc2n1COP(=O)(OC(C)(C)C)OC(C)(C)C)[C@@H]1COCc2[nH]c(=O)c3cc(F)c(F)cc3c21` [Compound 376, (S)-di-tert-Butyl ((2-((8,9-difluoro-6-oxo-1,4,5,6-tetrahydro-2H-pyrano[3,4-c]isoquinolin-1-yl)(methyl)carbamoyl)-5,6-difluoro-1H-indol-1-yl)methyl)phosphate] and `CN(C(=O)c1cc2cc(F)c(F)cc2[nH]1)[C@@H]1COC(F)c2[nH]c(=O)c3cc(F)c(F)cc3c21` (stereo partly drawn) [Compound 411, 5,6-Difluoro-N-methyl-N-((1S)-4,8,9-trifluoro-6-oxo-1,4,5,6-tetrahydro-2H-pyrano[3,4-c]isoquinolin-1-yl)-1H-indole-2-carboxamide] are the same in EC50: 10 nM for the first, 10 nM for the second.

`CN(C(=O)c1cnc(C(F)(F)F)c(Cl)c1)[C@@H]1COCc2[nH]c(=O)c3cc(F)c(F)cc3c21` [Compound 377, (S)-5-Chloro-N-(8,9-difluoro-6-oxo-1,4,5,6-tetrahydro-2H-pyrano[3,4-c]isoquinolin-1-yl)-N-methyl-6-(trifluoromethyl)nicotinamide] and `CN(C(=O)c1cnc(C(F)(F)F)c(F)c1)[C@@H]1COCc2[nH]c(=O)c3cc(F)c(F)cc3c21` [Compound 412, (S)-N-(8,9-Difluoro-6-oxo-1,4,5,6-tetrahydro-2H-pyrano[3,4-c]isoquinolin-1-yl)-5-fluoro-N-methyl-6-(trifluoromethyl)nicotinamide] are within 1.5-fold of each other in EC50: 40 nM for the first, 30 nM for the second.

First: CN(C(=O)c1cc2c(Br)c(Cl)ncc2[nH]1)[C@@H]1COCc2[nH]c(=O)c3cc(F)c(F)cc3c21 [Compound 384, (S)-4-Bromo-5-chloro-N-(8,9-difluoro-6-oxo-1,4,5,6-tetrahydro-2H-pyrano[3,4-c]isoquinolin-1-yl)-N-methyl-1H-pyrrolo[2,3-c]pyridine-2-carboxamide]
Second: CN(C(=O)c1cc2c(Cl)nc(Cl)cc2[nH]1)[C@@H]1COCc2[nH]c(=O)c3cc(F)c(F)cc3c21 [Compound 410, (S)-4,6-Dichloro-N-(8,9-difluoro-6-oxo-1,4,5,6-tetrahydro-2H-pyrano[3,4-c]isoquinolin-1-yl)-N-methyl-1H-pyrrolo[3,2-c]pyridine-2-carboxamide]
The EC50 of the first is 2-fold lower: 20 nM for the first, 40 nM for the second. The first is the more potent here.

Compared with `CN(C(=O)c1ccc2c(c1)CCC2)[C@@H]1COCc2[nH]c(=O)c3cc(F)c(F)cc3c21` [Compound 408, (S)-N-(8,9-Difluoro-6-oxo-1,4,5,6-tetrahydro-2H-pyrano[3,4-c]isoquinolin-1-yl)-N-methyl-2,3-dihydro-1H-indene-5-carboxamide], `CN(C(=O)c1ccc2ncoc2c1)[C@@H]1COCc2[nH]c(=O)c3cc(F)c(F)cc3c21` [Compound 409, (S)-N-(8,9-Difluoro-6-oxo-1,4,5,6-tetrahydro-2H-pyrano[3,4-c]isoquinolin-1-yl)-N-methylbenzo[d]oxazole-6-carboxamide] is 58-fold higher in EC50: 40 nM for the first, 2300 nM for the second.

`CN(C(=O)c1ccc2c(c1)c(Cl)nn2C)[C@@H]1COCc2[nH]c(=O)c3cc(F)c(F)cc3c21` [Compound 415, (S)-3-Chloro-N-(8,9-difluoro-6-oxo-1,4,5,6-tetrahydro-2H-pyrano[3,4-c]isoquinolin-1-yl)-N,1-dimethyl-1H-indazole-5-carboxamide] and `CCn1nc(Cl)c2cc(C(=O)N(C)[C@@H]3COCc4[nH]c(=O)c5cc(F)c(F)cc5c43)ccc21` [Compound 416, (S)-3-Chloro-N-(8,9-difluoro-6-oxo-1,4,5,6-tetrahydro-2H-pyrano[3,4-c]isoquinolin-1-yl)-1-ethyl-N-methyl-1H-indazole-5-carboxamide] are within 1.5-fold of each other in EC50: 60 nM for the first, 80 nM for the second.

First: CN(C(=O)c1ccc2ocnc2c1)[C@@H]1COCc2[nH]c(=O)c3cc(F)c(F)cc3c21 [Compound 426, (S)-N-(8,9-Difluoro-6-oxo-1,4,5,6-tetrahydro-2H-pyrano[3,4-c]isoquinolin-1-yl)-N-methylbenzo[d]oxazole-5-carboxamide]
Second: CN(C(=O)c1ccc2scnc2c1)[C@@H]1COCc2[nH]c(=O)c3cc(F)c(F)cc3c21 [Compound 427, (S)-N-(8,9-Difluoro-6-oxo-1,4,5,6-tetrahydro-2H-pyrano[3,4-c]isoquinolin-1-yl)-N-methylbenzo[d]thiazole-5-carboxamide]
The EC50 of the first is 1.9-fold lower: 90 nM for the first, 170 nM for the second. The first is the more potent here.

Going from `CN(C(=O)c1ccc2c(c1)c(C(F)F)nn2C)[C@@H]1COCc2[nH]c(=O)c3cc(F)c(F)cc3c21` [Compound 436, (S)-N-(8,9-Difluoro-6-oxo-1,4,5,6-tetrahydro-2H-pyrano[3,4-c]isoquinolin-1-yl)-3-(difluoromethyl)-N,1-dimethyl-1H-indazole-5-carboxamide] to `CN(C(=O)c1ccc2c(cnn2C(F)F)c1)[C@@H]1COCc2[nH]c(=O)c3cc(F)c(F)cc3c21` [Compound 437, (S)-N-(8,9-Difluoro-6-oxo-1,4,5,6-tetrahydro-2H-pyrano[3,4-c]isoquinolin-1-yl)-1-(difluoromethyl)-N-methyl-1H-indazole-5-carboxamide], the EC50 falls from 100 nM to 5 nM (20-fold). The second is the more potent here.

Going from `CN(C(=O)c1ccc2cn[nH]c2c1)[C@@H]1COCc2[nH]c(=O)c3cc(F)c(F)cc3c21` [Compound 450, (S)-N-(8,9-Difluoro-6-oxo-1,4,5,6-tetrahydro-2H-pyrano[3,4-c]isoquinolin-1-yl)-N-methyl-1H-indazole-6-carboxamide] to `CN(C(=O)c1ccc2nc[nH]c2c1)[C@@H]1COCc2[nH]c(=O)c3cc(F)c(F)cc3c21` [Compound 451, (S)-N-(8,9-difluoro-6-oxo-1,4,5,6-tetrahydro-2H-pyrano[3,4-c]isoquinolin-1-yl)-N-methyl-1H-benzo[d]imidazole-6-carboxamide], the EC50 rises from 110 nM to 12300 nM (110-fold).

Going from `CN(C(=O)c1cc2sc(C#N)cc2[nH]1)[C@@H]1COCc2[nH]c(=O)c3cc(F)c(F)cc3c21` [Compound 468] to `CN(C(=O)c1cc2sc(Cl)cc2[nH]1)[C@@H]1COC(=O)c2[nH]c(=O)c3cc(F)c(F)cc3c21` [Compound 477, (S)-2-Chloro-N-(8,9-difluoro-4,6-dioxo-1,4,5,6-tetrahydro-2H-pyrano[3,4-c]isoquinolin-1-yl)-N-methyl-4H-thieno[3,2-b]pyrrole-5-carboxamide], the EC50 rises from 5 nM to 20 nM (4-fold). The first is the more potent here.
